Here are results for eight compounds from ChEMBL document CHEMBL1201862, “PubChem BioAssay data set” (2004).

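All cell lines were grown in 96-well plates and treated with compound for 48 hours. GI50: concentration for 50% inhibition of growth.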 The source made the active and inactive calls. No stated cut-off is given here; in the data, active = GI50 up to about 1.1 µM and inactive = higher.

Some test systems named below: M14; HCC 2998; KM12; SF-268; SF-295; SNB-19; CCRF-CEM; K562; HCT-116; HT-29; LOX IMVI; MOLT-4; PC-3; CAKI-1; TK-10; UO-31; NCI-H460; T47D; NCI-H23; SR.
Common to all, as to test: NCI anticancer screen, dose series, 48 h

Regarding `C=C(CCC(C)C1CCC2C3=C(C(=O)CC21C)C1(C)CCC(=O)[C@@H](C)C1CC3=O)C(C)C(=O)O` (stereo not given in full), the GI50 in the test on M14 was > 100 µM (inactive); with HCC 2998 it was 98.2 µM (inactive); in the test with KM12, 85.5 µM (inactive); with SF-268 it was > 100 µM (inactive); in the test on SF-295, 53.2 µM (inactive); in the test on SNB-19, > 100 µM (inactive). Also, the GI50 in the test on CCRF-CEM is 22.2 µM (inactive); in the test with K562 it was 18.6 µM (inactive); in the test on HCT-116, 50.9 µM (inactive); with HT-29, 87.7 µM (inactive); in the test on LOX IMVI, 17.4 µM (inactive); in the test with MOLT-4, 40.2 µM (inactive). Further, the GI50 is 33.6 µM (inactive) in the test on PC-3; 30.7 µM (inactive) with CAKI-1; > 100 µM (inactive) with TK-10; 15.2 µM (inactive) in the test with UO-31; 34 µM (inactive) with NCI-H460; 30.7 µM (inactive) in the test on T47D. For the same compound, the GI50 in the test on NCI-H23 was 38.9 µM (inactive); with SR, 35.2 µM (inactive).

With `CC(C)(C)OC(=O)c1ccc(NCC2=CC(=O)C=CC2=O)cc1`, the GI50 is 6.38 µM (inactive) with M14; 20 µM (inactive) in the test on HCC 2998; 14.5 µM (inactive) in the test with KM12; 11.5 µM (inactive) in the test with SF-268; 23 µM (inactive) with SF-295; 15.1 µM (inactive) with SNB-19. In addition, the GI50 was 1.76 µM (inactive) in the test with CCRF-CEM; 2.75 µM (inactive) in the test with K562; 13.2 µM (inactive) in the test on HCT-116; 17.3 µM (inactive) in the test on HT-29; 10.7 µM (inactive) in the test with LOX IMVI; 1.97 µM (inactive) in the test with MOLT-4. Moreover, the GI50 is 12 µM (inactive) in the test with PC-3; 1.48 µM (inactive) with CAKI-1; 9.25 µM (inactive) in the test with TK-10; 7.11 µM (inactive) with UO-31; 23.6 µM (inactive) in the test with NCI-H460; 1.95 µM (inactive) in the test on T47D. Moreover, the GI50 was 8.61 µM (inactive) in the test on NCI-H23 and 2.47 µM (inactive) in the test on SR.

Take `Cc1ccc2c(c1)C(=O)/C(=C\c1ccccc1)CCS2(=O)=O`: the GI50 is 19.8 µM (inactive) with M14; 12.2 µM (inactive) in the test on HCC 2998; 10.5 µM (inactive) with KM12; 15.1 µM (inactive) in the test with SF-268; 14.2 µM (inactive) in the test with SF-295; 8.51 µM (inactive) in the test with SNB-19. The GI50 is 1.07 µM (active) in the test with CCRF-CEM; 2.32 µM (inactive) in the test with K562; 6.43 µM (inactive) in the test on HCT-116; 9.06 µM (inactive) with HT-29; 10.7 µM (inactive) in the test on LOX IMVI; 4.54 µM (inactive) in the test on MOLT-4. Moreover, the GI50 is 10.4 µM (inactive) with PC-3; 17.2 µM (inactive) in the test with CAKI-1; 13.8 µM (inactive) in the test on TK-10; 10.8 µM (inactive) in the test with UO-31; 9.12 µM (inactive) in the test on NCI-H460; 11.7 µM (inactive) with T47D. Further, the figures for the GI50 in the test with NCI-H23 and with SR were 12.7 µM (inactive) and 2.92 µM (inactive), respectively.

For `O=C1/C(=C/c2ccccc2)CN(C(=O)CCN2CCOCC2)C/C1=C\c1ccccc1`, the GI50 was 2.33 µM (inactive) in the test on M14; 1.87 µM (inactive) in the test on HCC 2998; 1.6 µM (inactive) in the test with KM12; 2.87 µM (inactive) in the test on SF-268; 2.42 µM (inactive) in the test with SF-295; 5.45 µM (inactive) in the test with SNB-19. Besides, the GI50 in the test with CCRF-CEM is 1.38 µM (inactive); in the test with K562 it was 0.388 µM (active); in the test on HCT-116 it was 0.778 µM (active); in the test with HT-29, 1.95 µM (inactive); in the test with LOX IMVI it was 0.897 µM (active); in the test with MOLT-4 it was 2.58 µM (inactive). In addition, the GI50 in the test with PC-3 was 2.75 µM (inactive); in the test on CAKI-1, 10.1 µM (inactive); in the test on TK-10 it was 11.9 µM (inactive); in the test on UO-31, 8.97 µM (inactive); with NCI-H460, 2.36 µM (inactive); in the test with T47D it was 3.34 µM (inactive). Also, the GI50 was 2.55 µM (inactive) in the test with NCI-H23 and 1.06 µM (active) in the test on SR.

For the compound `COC(=O)C1=NN2c3ccccc3CN([C@@H](C)c3ccccc3)C(=O)[C@@H]2[C@H]1c1ccccc1`, the GI50 in the test on M14, with HCC 2998, in the test with KM12, in the test with SF-268, in the test with SF-295 and in the test on SNB-19 was > 100 µM (inactive) each time. In addition, the GI50 with CCRF-CEM is > 100 µM (inactive); with K562, 13.3 µM (inactive); in the test with HCT-116 it was > 100 µM (inactive); in the test on HT-29, > 100 µM (inactive); in the test with LOX IMVI, > 100 µM (inactive); in the test on MOLT-4, 5.66 µM (inactive). Besides, the GI50 in the test on PC-3 is 21.3 µM (inactive); in the test on CAKI-1 it was > 100 µM (inactive); in the test on TK-10 it was > 100 µM (inactive); in the test on UO-31, > 100 µM (inactive); in the test on NCI-H460, > 100 µM (inactive); in the test with T47D it was 9.75 µM (inactive). The GI50 is > 100 µM (inactive) in the test with NCI-H23 and 63 µM (inactive) in the test with SR.

Regarding `N#Cc1nc(C#N)c(N)[nH]1`, the GI50 with M14, with HCC 2998, in the test on KM12, in the test on SF-268, in the test with SF-295 and with SNB-19 was > 100 µM (inactive) each time. For the same compound, the GI50 in the test on CCRF-CEM, with K562, in the test with HCT-116, in the test on HT-29, in the test on LOX IMVI and in the test on MOLT-4 was > 100 µM (inactive) throughout. Besides, the GI50 with PC-3, with CAKI-1, with TK-10, with UO-31, with NCI-H460 and with T47D was > 100 µM (inactive) in each case. For the same compound, the GI50 in the test with NCI-H23 and in the test on SR was > 100 µM (inactive) in each case.

On to `O=C(NN1CCCCC1)c1cc2cc(CCl)ccc2oc1=O`, for which the GI50 in the test on M14 was 18.8 µM (inactive); with HCC 2998, 13.9 µM (inactive); with KM12, 22.1 µM (inactive); with SF-268, 16.4 µM (inactive); in the test on SF-295, 20.1 µM (inactive); in the test with SNB-19 it was 23.6 µM (inactive). For the same compound, the GI50 was 17.2 µM (inactive) in the test with CCRF-CEM; 16.7 µM (inactive) in the test on K562; 18.2 µM (inactive) in the test with HCT-116; 14.9 µM (inactive) in the test with HT-29; 18.5 µM (inactive) with LOX IMVI; 22.2 µM (inactive) in the test on MOLT-4. Moreover, the GI50 with PC-3 is 14.8 µM (inactive); in the test with CAKI-1, 18.1 µM (inactive); with TK-10 it was 17 µM (inactive); with UO-31, 18.5 µM (inactive); in the test on NCI-H460 it was 14.9 µM (inactive); in the test on T47D, 20.9 µM (inactive). Also, the GI50 with NCI-H23 was 16.5 µM (inactive); in the test on SR, 21.2 µM (inactive).

Consider `CCOC(=O)/C=C(\C(=O)OCC)n1cc(C)c(=O)n(Cc2cn(CCCCOC(C)=O)nn2)c1=O`, for which the GI50 in the test with M14 was 11.9 µM (inactive); in the test on HCC 2998, 18.3 µM (inactive); in the test with KM12, 18.5 µM (inactive); in the test with SF-268, 14.2 µM (inactive); with SF-295, 18.4 µM (inactive); in the test on SNB-19 it was 20 µM (inactive). The GI50 in the test on CCRF-CEM is 1.83 µM (inactive); in the test on K562, 2.53 µM (inactive); with HCT-116 it was 11.3 µM (inactive); with HT-29 it was 8.32 µM (inactive); in the test on LOX IMVI, 6.62 µM (inactive); with MOLT-4, 2.44 µM (inactive). For the same compound, the GI50 was 14.3 µM (inactive) with PC-3; 3.92 µM (inactive) in the test with CAKI-1; 7.38 µM (inactive) with TK-10; 14.5 µM (inactive) in the test with UO-31; 8.18 µM (inactive) in the test with NCI-H460; 11.6 µM (inactive) in the test with T47D. Besides, the GI50 in the test with NCI-H23 is 14.2 µM (inactive); with SR, 3.05 µM (inactive).
